Measurements published in PubChem BioAssay (NCI).
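Five concentrations, 48 hours, 96-well plates. GI50: concentration for 50% inhibition of growth. TGI: total growth inhibition.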

Columns and labels:
Test in all cases: NCI anticancer screen, dose series, 48 h
RPMI-8226 leukemia = tested on: RPMI-8226 leukemia
SNB-19 CNS = tested on: SNB-19 CNS
SK-MEL-28 melanoma = tested on: SK-MEL-28 melanoma
SF-295 CNS = tested on: SF-295 CNS
OVCAR-4 ovarian = tested on: OVCAR-4 ovarian
DU-145 prostate = tested on: DU-145 prostate
MDA-MB-435 = tested on: MDA-MB-435
SW-620 colon = tested on: SW-620 colon
M14 melanoma = tested on: M14 melanoma
LOX IMVI melanoma = tested on: LOX IMVI melanoma
NCI/ADR-RES ovarian = tested on: NCI/ADR-RES ovarian
OVCAR-5 ovarian = tested on: OVCAR-5 ovarian
786-0 renal = tested on: 786-0 renal
NCI-H460 lung = tested on: NCI-H460 lung
SR leukemia = tested on: SR leukemia
OVCAR-3 ovarian = tested on: OVCAR-3 ovarian
OVCAR-8 ovarian = tested on: OVCAR-8 ovarian
SK-MEL-2 melanoma = tested on: SK-MEL-2 melanoma
SF-268 CNS = tested on: SF-268 CNS
MOLT-4 leukemia = tested on: MOLT-4 leukemia
HS 578T breast = tested on: HS 578T breast
NCI-H226 lung = tested on: NCI-H226 lung
UACC-62 melanoma = tested on: UACC-62 melanoma
T-47D breast = tested on: T-47D breast
HL-60(TB) leukemia = tested on: HL-60(TB) leukemia
PC-3 prostate = tested on: PC-3 prostate
IGROV1 ovarian = tested on: IGROV1 ovarian

For `CCOC(=O)/C=C/C1=C(c2csc3ccccc23)c2ccccc2CC1`, the GI50 (RPMI-8226 leukemia) was 22.6 µM, the TGI (RPMI-8226 leukemia) was > 100 µM and the GI50 (SNB-19 CNS) was 21.3 µM. For the same compound, the TGI (SNB-19 CNS) was 80.9 µM, the GI50 (SK-MEL-28 melanoma) was 32 µM and the TGI (SK-MEL-28 melanoma) was > 100 µM. It also gave a GI50 (SF-295 CNS) of 18.4 µM, a TGI (SF-295 CNS) of 88.4 µM and a GI50 (OVCAR-4 ovarian) of 11.6 µM. For the same compound, the TGI (OVCAR-4 ovarian) was 48.8 µM, the GI50 (DU-145 prostate) was 54.9 µM and the TGI (DU-145 prostate) was > 100 µM. For the same compound, the GI50 (MDA-MB-435) was 4.34 µM, the TGI (MDA-MB-435) was 25.7 µM and the GI50 (SW-620 colon) was 31.8 µM. For the same compound, the TGI (SW-620 colon) was > 100 µM, the GI50 (M14 melanoma) was 29.7 µM and the TGI (M14 melanoma) was > 100 µM. For the same compound, the GI50 (LOX IMVI melanoma) was 30.6 µM, the TGI (LOX IMVI melanoma) was > 100 µM and the GI50 (NCI/ADR-RES ovarian) was 38.7 µM. For the same compound, the TGI (NCI/ADR-RES ovarian) was > 100 µM, the GI50 (OVCAR-5 ovarian) was > 100 µM and the TGI (OVCAR-5 ovarian) was > 100 µM. For the same compound, the GI50 (786-0 renal) was 57 µM, the TGI (786-0 renal) was > 100 µM and the GI50 (NCI-H460 lung) was 37.5 µM. For the same compound, the TGI (NCI-H460 lung) was > 100 µM, the GI50 (SR leukemia) was 15.4 µM and the TGI (SR leukemia) was 48.8 µM. The GI50 (OVCAR-3 ovarian) was 27.4 µM, the TGI (OVCAR-3 ovarian) was > 100 µM and the GI50 (OVCAR-8 ovarian) was 79 µM. The TGI (OVCAR-8 ovarian) was > 100 µM, the GI50 (SK-MEL-2 melanoma) was > 100 µM and the TGI (SK-MEL-2 melanoma) was > 100 µM. For the same compound, the GI50 (SF-268 CNS) was 28.2 µM, the TGI (SF-268 CNS) was 90 µM and the GI50 (MOLT-4 leukemia) was 32.2 µM. The TGI (MOLT-4 leukemia) was > 100 µM, the GI50 (HS 578T breast) was 52.7 µM and the TGI (HS 578T breast) was > 100 µM. The GI50 (NCI-H226 lung) was > 100 µM, the TGI (NCI-H226 lung) was > 100 µM and the GI50 (UACC-62 melanoma) was 23.6 µM. The TGI (UACC-62 melanoma) was > 100 µM, the GI50 (T-47D breast) was 12.3 µM and the TGI (T-47D breast) was 55.5 µM. For the same compound, the GI50 (HL-60(TB) leukemia) was 32.4 µM, the TGI (HL-60(TB) leukemia) was > 100 µM and the GI50 (PC-3 prostate) was 19.8 µM. For the same compound, the TGI (PC-3 prostate) was > 100 µM and the GI50 (IGROV1 ovarian) was 25.5 µM.
